pIC50: −log10 of the molar value.
How the values were obtained:
human PDE5 = molecular target: T1, human PDE5 (Homo sapiens, UniProt O76074); assay: PDE5 enzyme inhibition, IC50 determination; type: biochemical
T1 construct: made in house; host or cells: Saccharomyces cerevisiae protease-deficient strain BJ2-54 (ATCC 74465)

Bovine PDE6 = molecular target: T2, Bovine PDE6 (Bos taurus, UniProt P11541+P23439); assay: PDE6 enzyme inhibition, IC50 determination; type: biochemical; details: for PDE6/PDE5: ratio of IC50 versus PDE6 to IC50 versus PDE5
T2 construct: Hypotonic extracts were prepared by suspending isolated ROS; tissue Dr. N. Virmaux, INSERM U338, Strasbourg; host or cells: bovine retina, rod outer segment hypotonic extract
T2 sequence (P11541 2-856 limits assumed): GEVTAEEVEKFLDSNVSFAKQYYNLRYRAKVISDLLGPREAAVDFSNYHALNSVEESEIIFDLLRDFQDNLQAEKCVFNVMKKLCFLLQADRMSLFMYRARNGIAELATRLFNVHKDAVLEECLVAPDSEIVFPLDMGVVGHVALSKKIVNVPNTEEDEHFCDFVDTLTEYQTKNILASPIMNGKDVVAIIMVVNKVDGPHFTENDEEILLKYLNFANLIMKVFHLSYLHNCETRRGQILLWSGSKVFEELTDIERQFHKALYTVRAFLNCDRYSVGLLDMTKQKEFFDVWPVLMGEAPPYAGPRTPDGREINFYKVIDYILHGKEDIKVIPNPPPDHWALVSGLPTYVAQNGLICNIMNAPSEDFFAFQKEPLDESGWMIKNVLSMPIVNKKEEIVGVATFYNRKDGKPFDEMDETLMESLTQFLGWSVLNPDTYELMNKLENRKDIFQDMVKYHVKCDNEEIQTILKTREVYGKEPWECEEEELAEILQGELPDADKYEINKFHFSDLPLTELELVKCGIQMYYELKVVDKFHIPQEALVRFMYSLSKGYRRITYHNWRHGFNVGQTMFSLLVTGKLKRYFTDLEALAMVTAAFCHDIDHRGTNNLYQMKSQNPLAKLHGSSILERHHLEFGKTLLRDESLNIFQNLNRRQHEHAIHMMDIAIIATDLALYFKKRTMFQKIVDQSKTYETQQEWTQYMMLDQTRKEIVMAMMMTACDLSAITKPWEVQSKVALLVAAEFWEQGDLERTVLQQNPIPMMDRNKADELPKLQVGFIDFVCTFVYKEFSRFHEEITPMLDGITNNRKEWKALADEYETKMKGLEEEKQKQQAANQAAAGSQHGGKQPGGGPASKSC
T2 sequence (P23439 2-850 limits assumed): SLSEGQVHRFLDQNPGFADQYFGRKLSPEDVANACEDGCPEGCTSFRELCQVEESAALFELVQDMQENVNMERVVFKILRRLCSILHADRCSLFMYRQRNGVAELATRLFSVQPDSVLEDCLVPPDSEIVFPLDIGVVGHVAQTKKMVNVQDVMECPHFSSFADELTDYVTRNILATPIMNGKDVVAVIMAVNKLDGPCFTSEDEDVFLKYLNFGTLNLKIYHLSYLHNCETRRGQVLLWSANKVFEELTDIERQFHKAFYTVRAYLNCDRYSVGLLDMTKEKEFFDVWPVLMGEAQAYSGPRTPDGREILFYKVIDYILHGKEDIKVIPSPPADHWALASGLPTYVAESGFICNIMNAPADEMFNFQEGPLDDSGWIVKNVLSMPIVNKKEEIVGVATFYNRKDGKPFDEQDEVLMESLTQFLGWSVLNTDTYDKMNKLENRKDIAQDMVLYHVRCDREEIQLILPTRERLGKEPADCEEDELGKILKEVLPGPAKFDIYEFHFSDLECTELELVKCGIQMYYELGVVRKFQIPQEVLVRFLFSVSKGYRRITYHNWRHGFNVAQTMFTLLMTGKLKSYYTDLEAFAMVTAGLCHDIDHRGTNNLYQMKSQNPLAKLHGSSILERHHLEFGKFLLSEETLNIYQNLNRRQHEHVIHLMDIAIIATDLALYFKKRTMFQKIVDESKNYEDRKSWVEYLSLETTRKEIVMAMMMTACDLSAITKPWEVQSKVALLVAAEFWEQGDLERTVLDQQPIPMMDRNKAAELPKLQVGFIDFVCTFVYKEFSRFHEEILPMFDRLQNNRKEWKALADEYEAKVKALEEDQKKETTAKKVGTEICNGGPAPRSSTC
T2 sequence (P04972 1-87 partner): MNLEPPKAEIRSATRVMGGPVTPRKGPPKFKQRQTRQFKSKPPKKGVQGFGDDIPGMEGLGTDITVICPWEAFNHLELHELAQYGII
Experimental: Bovine PDE6 was supplied by Dr. N. Virmaux, INSERM U338, Strasbourg. Bovine retinas were prepared as described by Virmaux et al., FEBS Letters, 12(6), pp. 325-328 (1971) and see also, A. Sitaramayya et al., Exp. Eye Res., 25, pp. 163-169 (1977). Briefly, unless stated otherwise, all operations were done in the cold and in dim red light. Eyes were kept in the cold and in the dark for up to four hours after slaughtering.
Preparation of bovine retinal outer segment (ROS) basically followed procedures described by Schichi et al., J. Biol. Chem., 224:529 (1969). In a typical experiment, 35 bovine retinas were ground in a mortar with 35 mL 0.066 M phosphate buffer, pH 7.0, made up to 40% with sucrose, followed by homogenization in a Potter homogenizer (20 up and down strokes). The suspension was centrifuged at 25,000×g for 20 minutes. The pellet was homogenized in 7.5 mL 0.006 M phosphate buffer (40% in sucrose), and carefully layered under 7.5 mL of phosphate buffer (containing no sucrose). Centrifugation was conducted in a swing-out rotor at 45,000×g for 20 minutes, and produced a pellet which is black at the bottom, and also a red band at the interface 0.066 M. phosphate—40% sucrose/0.066 M phosphate (crude ROS). The red material at the interface was removed, diluted with phosphate buffer, spun down to a pellet, and redistributed in buffered 40% sucrose as described above. This procedure was repeated 2 or 3 times until no pellet was formed. The purified ROS was washed in phosphate buffer and finally spun down to a pellet at 25,000×g for 20 minutes. All materials were then kept frozen until used.
Hypotonic extracts were prepared by suspending isolated ROS in 10 mM Tris-Cl pH 7.5, 1 mM EDTA, and 1 mM dithioerythritol, followed by centrifugation at 100,000×g for 30 minutes.
The preparation was reported to have a specific activity of about 35 nmoles cGMP hydrolyzed per minute per milligram protein.
Biophys. Acta, 384:430 (1975).

PDE1 = details: package insert; cited from earlier work
PDE2 = PDE2 (Homo sapiens, UniProt O00408); details: package insert; cited from earlier work
PDE3 = details: package insert; cited from earlier work
PDE4 = details: package insert; cited from earlier work
[1] = test system: patients taking organic nitrates; details: in combination with organic nitrates; cited from earlier work

PDE2, sequence (O00408 whole entry): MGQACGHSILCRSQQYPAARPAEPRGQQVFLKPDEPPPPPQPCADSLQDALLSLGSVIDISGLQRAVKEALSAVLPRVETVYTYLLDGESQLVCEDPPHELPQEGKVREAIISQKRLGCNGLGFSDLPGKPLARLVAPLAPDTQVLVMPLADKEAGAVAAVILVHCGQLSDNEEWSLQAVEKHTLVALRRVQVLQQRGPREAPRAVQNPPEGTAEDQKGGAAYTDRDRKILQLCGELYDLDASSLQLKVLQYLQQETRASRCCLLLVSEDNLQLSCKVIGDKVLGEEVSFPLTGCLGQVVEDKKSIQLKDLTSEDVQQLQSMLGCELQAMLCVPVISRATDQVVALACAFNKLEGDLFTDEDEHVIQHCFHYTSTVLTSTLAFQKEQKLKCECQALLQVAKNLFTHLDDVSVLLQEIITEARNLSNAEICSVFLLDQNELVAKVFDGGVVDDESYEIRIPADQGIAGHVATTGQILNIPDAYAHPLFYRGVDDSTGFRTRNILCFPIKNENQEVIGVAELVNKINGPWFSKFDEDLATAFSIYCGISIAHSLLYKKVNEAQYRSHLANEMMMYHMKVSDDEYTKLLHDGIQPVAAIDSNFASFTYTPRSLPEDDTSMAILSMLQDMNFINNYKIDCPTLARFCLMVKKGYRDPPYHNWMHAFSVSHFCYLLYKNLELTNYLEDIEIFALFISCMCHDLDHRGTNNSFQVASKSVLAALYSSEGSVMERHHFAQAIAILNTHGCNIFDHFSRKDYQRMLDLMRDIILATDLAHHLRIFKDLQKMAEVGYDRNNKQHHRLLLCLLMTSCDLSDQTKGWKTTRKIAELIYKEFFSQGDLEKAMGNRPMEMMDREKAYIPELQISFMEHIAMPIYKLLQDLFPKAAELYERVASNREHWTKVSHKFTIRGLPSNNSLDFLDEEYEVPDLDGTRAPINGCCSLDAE

Structure (SMILES)	pIC50 (human PDE5)	pIC50 (Bovine PDE6)	PDE6/PDE5 (Bovine PDE6)	more potent inhibitor of PDE5 than PDE1 (PDE1)	more potent inhibitor of PDE5 than PDE2 (PDE2)	more potent inhibitor of PDE5 than PDE3 (PDE3)	more potent inhibitor of PDE5 than PDE4 (PDE4)	effect on hypotensive effects of nitrates [1]
O=C1C2Cc3c([nH]c4ccccc34)C(c3ccc4c(c3)OCO4)N2C(=O)CN1Cc1ccc(NS(=O)(=O)C(F)(F)F)cc1 (centres unmarked) [Compound 1]	8.30	6.18	133					
O=C1C2Cc3c([nH]c4ccccc34)C(c3ccc4c(c3)OCO4)N2C(=O)CN1Cc1cccc(NS(=O)(=O)C(F)(F)F)c1 (centres unmarked) [Compound 3]	8.70	6.38	210					
CC1NC(=O)C2Cc3c([nH]c4ccccc34)C(c3ccc4c(c3)OCO4)N2C1=O (centres unmarked) [Compound 4]	8.30	6.14	146					
CCCc1nn(C)c2c(=O)[nH]c(-c3cc(S(=O)(=O)N4CCN(C)CC4)ccc3OCC)nc12 [sildenafil]				greater than 80 fold	greater than 1,000 fold	greater than 1,000 fold	greater than 1,000 fold	potentiates the hypotensive effects of nitrates

Reference: patent US6451807B1, “Methods of treating sexual dysfunction in an individual suffering from a retinal disease, class 1 congestive heart failure, or myocardial infarction using a PDE5 inhibitor” (Lilly Icos, LLC., priority 1999, dated 2002)
